# Tests used:
# [1] = tested on: Green Peach Aphid (Myzus Persicae); test: Test of preventive value against green peach aphid (Test Example 1); type: in vivo; conditions: 500 ppm, sprayed over stems and leaves of potted Chinese cabbages, sixth day after spraying
# Description: Test of Preventive Value Against Green Peach Aphid (Myzus Persicae)
# Chinese cabbages were planted in plastic pots, each with a size of 8 cm in diameter and 8 cm in height, after which green peach aphids were propagated and the number of parasitic insects was examined in each pot. An oxazepine compound or salt thereof expressed by General Formula (I) according to the present invention was dispersed in water and the dispersion was diluted to 500 ppm in the form of a reagent, after which the reagent was sprayed over stems and leaves of potted Chinese cabbages and let dry under wind, and the pots were kept in a greenhouse, and on the sixth day after the reagent was sprayed, the number of green peach aphids living parasitically on each Chinese cabbage was examined and the preventive value was calculated based on the formula below, and judgment was made according to the criteria below. Preventive value=100−{(T×Ca)/(Ta×C)}×100 [Mathematical Formula 1] • Ta: Number of parasitic insects inside the treatment area before spraying • T: Number of parasitic insects inside the treatment area after spraying • Ca: Number of parasitic insects inside the non-treatment area before spraying • C: Number of parasitic insects inside the non-treatment area after spraying Judgment Criteria • A - - - Preventive value: 100% • B - - - Preventive value: 99%˜90% • C - - - Preventive value: 89%˜80% • D - - - Preventive value: 79%˜50%
# [2] = tested on: Small Brown Planthopper (Laodelphax Striatellus); test: Test of insecticidal efficacy against small brown planthopper (Test Example 2); type: in vivo; conditions: 500 ppm, rice plants soaked 30 seconds, third-instar larvae, eight days after inoculation; criteria same as in Test Example 1
# Excerpt: Test of Insecticidal Efficacy Against Small Brown Planthopper (Laodelphax Striatellus)
Compound,"Preventive value, judgment [1]","Corrected insect mortality, judgment [2]"
CSCN1C(=O)c2nn(-c3cccnc3)cc2Oc2cc(F)ccc21 [8-24],A to D,A to D
O=C1c2nn(-c3cccnc3)cc2Oc2ccccc2N1Cc1cccnc1 [1-58],A to D,A to D
CN1C(=O)c2nn(-c3cccnc3)cc2Oc2c(Cl)cccc21 [1-23],A to D,A to D
CSC1=Nc2cc(F)ccc2Oc2cn(-c3cccnc3)nc21 [11-18],A to D,A to D
"CN1C(=S)c2nn(-c3cccnc3)cc2Oc2ccccc21 [Compound No. 2-2, 9-methyl-2-(pyridine-3-yl)-2H-benzo [b]pyrazolo [3,4-f][1,4]oxazepine-10 (9H)-thione]",A to D,A to D
CN1C(=O)c2nn(-c3cccnc3)cc2Oc2cc(Cl)ccc21 [1-27],A to D,A to D
S=C1Nc2ccccc2Oc2cn(-c3cccnc3)nc21 [2-1],A to D,A to D
C#CCN1C(=O)c2nn(-c3cccnc3)cc2Oc2cc(C(F)(F)F)ccc21 [1-35],A to D,A to D
CN1C(=O)c2nn(-c3cccnc3)cc2Oc2ncc(C(F)(F)F)cc21 [4-10],A to D,A to D
CS(=O)(=O)CN1C(=O)c2nn(-c3cccnc3)cc2Oc2ccc(F)cc21 [8-49],A to D,A to D
COc1ccc2c(c1)Oc1cn(-c3cccnc3)nc1C(=O)N2 [1-39],A to D,A to D
CCCCCCN1C(=O)c2nn(-c3cccnc3)cc2Oc2ccccc21 [1-52],A to D,A to D
CN1C(=O)c2nn(-c3cncc(F)c3)cc2Oc2cc(F)ccc21 [1-80],A to D,A to D
O=C1c2nn(-c3cccnc3)cc2Oc2ccc(F)cc2N1CCCCBr [8-40],A to D,A to D
CSCCOC1=Nc2ccc(C(F)(C(F)(F)F)C(F)(F)F)cc2Oc2cn(-c3cccnc3)nc21 [11-17],A to D,A to D
CN1C(=O)c2nn(-c3cccnc3)cc2Oc2ccc(F)cc21 [1-15],A to D,A to D
CN1C(=O)c2nn(-c3cccnc3)cc2Oc2cccc(F)c21 [1-19],A to D,A to D
COc1ccc2c(c1)Oc1cn(-c3cccnc3)nc1C(=O)N2C [1-40],A to D,A to D
C#CCN1C(=O)c2nn(-c3cccnc3)cc2Oc2cc(OC)ccc21 [1-41],A to D,A to D
CCSC1=Nc2cc(F)ccc2Oc2cn(-c3cccnc3)nc21 [11-19],A to D,A to D
COC(CN1C(=O)c2nn(-c3cccnc3)cc2Oc2ccccc21)OC [8-10],A to D,A to D
O=C1c2nn(-c3cccnc3)cc2Oc2ccc(F)cc2N1CC1CCCO1 (centres unmarked) [8-41],A to D,A to D
O=C1Nc2ccc(Cl)cc2Oc2cn(-c3cccnc3)nc21 [1-26],A to D,A to D
ClC1=Nc2ccccc2Oc2cn(-c3cccnc3)nc21 [11-1],A to D,A to D
CN1C(=O)c2nn(-c3cccnc3)cc2Oc2nccnc21 [13-1],A to D,A to D
CN1C=COc2cn(-c3cccnc3)nc2C1=O [7-2],A to D,A to D

Compound,"Preventive value, judgment [1]","Corrected insect mortality, judgment [2]"
CN(C)C1=Nc2ccccc2Oc2cn(-c3cccnc3)nc21 [11-10],A to D,A to D
C#CCN1C(=O)c2nn(-c3cccnc3)cc2Oc2cc(Cl)ccc21 [1-28],A to D,A to D
CS(=O)(=O)CN1C(=O)c2nn(-c3cccnc3)cc2Oc2ccccc21 [8-4],A to D,A to D
COC(=O)N1C(=O)c2nn(-c3cccnc3)cc2Oc2ccccc21 [8-13],A to D,A to D
c1cncc(-n2cc3c(n2)C(NC2CC2)=Nc2ccccc2O3)c1 [11-7],A to D,A to D
Cc1ccc2c(c1)Oc1cn(-c3cccnc3)nc1C(=O)N2 [1-30],A to D,A to D
O=C1c2nn(-c3cccnc3)cc2Oc2ccc(F)cc2N1CCCl [8-38],A to D,A to D
N#CCN1C(=O)c2nn(-c3cccnc3)cc2Oc2ccc(F)cc21 [1-17],A to D,A to D
O=C1Nc2cccc(F)c2Oc2cn(-c3cccnc3)nc21 [1-6],A to D,A to D
C#CCN1C(=O)c2nn(-c3cccnc3)cc2Oc2ccccc21 [1-3],A to D,A to D
CN1C(=O)c2nn(-c3cccnc3)cc2Oc2ccc(N)cc21 [1-45],A to D,A to D
C#CCN1C(=O)c2nn(-c3cccnc3)cc2Oc2cc(C#N)ccc21 [1-48],A to D,A to D
"Fc1ccc2c(c1)NCc1nn(-c3cccnc3)cc1O2 [Compound No. 3-6, 7-fluoro-2-(pyridine-3-yl)-9,10-dihydro-2H-benzo [b]pyrazolo [3,4-f][1,4]oxazepine]",A to D,A to D
N#CCN1C(=O)c2nn(-c3cccnc3)cc2Oc2ccccc21 [1-4],A to D,A to D
CN1C(=O)c2nn(-c3cccnc3)cc2Oc2cc(C#N)ccc21 [1-47],A to D,A to D
COCN1C(=O)c2nn(-c3cccnc3)cc2Oc2ccc(F)cc21 [8-45],A to D,A to D
Fc1ccc2c(c1)NC(=S)c1nn(-c3cccnc3)cc1O2 [2-5],A to D,A to D
CN1C(=O)c2nn(-c3cccnc3)cc2Oc2cnccc21 [5-2],A to D,A to D
C=CCN1C(=O)c2nn(-c3cccnc3)cc2Oc2ccc(Br)cc21 [8-64],–,A to D
C=CCN1C(=O)c2nn(-c3cccnc3)cc2Oc2ccc(Cl)cc21 [8-58],–,A to D
C=CCN1C(=O)c2nn(-c3cccnc3)cc2Oc2cc(F)ccc21 [8-23],–,A to D
C#CCN1Cc2nn(-c3cccnc3)cc2Oc2ccccc21 [3-3],–,A to D
Fc1ccc2c(c1)N=C(N1CCOCC1)c1nn(-c3cccnc3)cc1O2 [11-15],–,A to D
CCOCN1C(=O)c2nn(-c3cccnc3)cc2Oc2ccccc21 [8-21],–,A to D
N#CCN1C(=O)c2nn(-c3cccnc3)cc2Oc2ccc(Br)cc21 [8-66],–,A to D

# Source: patent publication US10100061B2, “Oxazepine compound and agricultural/horticultural insecticide containing said compound as active ingredient, and method for using the same” (NIHON NOHYAKU CO., LTD., priority 2014, dated 2018)
